In patent US20200129495A1 (BioPharmX, Inc., priority 2018, published 2020):
Like-named read-outs stand apart in the source and are kept apart here.

Assays:
[1] = Experimental: The pH of each suspension was determined using a pH meter (Orion Star A111, Thermo Scientific, Waltham, Mass.). Following, the pH of each suspension was adjusted with acid 1N HCl to the target pH. A 2 milliliter (mL) sample of the liquid portion of the mixture (supernatant) was removed from the top of each vial and spun in a micro-centrifuge (Eppendorf Minispin, Hamburg Germany) at 12,000 rpm for 2 minutes.
A 10 microliter (μL) sample was injected into a high-performance liquid chromatography machine (HPLC) (Agilent, Santa Clara, Calif.). […] The HPLC system also used a guard column (Phenomenex, Inc.) and a mobile phase consisting of a base solvent of 70 percent (v/v) methanol (Spectrum Chemicals, Gardena, Calif.), and 30 percent (v/v) 40 mM potassium phosphate buffer, pH 4.0 (Spectrum Chemicals, Gardena, Calif.). The HPLC flow rate was 1 mL per minute with a column temperature of 40 degrees centigrade, a detection wavelength of 262 nanometers (nm), and a runtime of at least 15 minutes.

[2] = Stability of ebastine in ethanol composition at 40° C.; assay type: physicochemical; details: over the tested period (2 months)
[3] = remark: listed apart in the source
Source text: Addition of the solvent was repeated until the test material was completely dissolved, resulting in a visually clear solution.

[4] = tested on: male C57BL/6J mice; details: topical 2.5 mg/cm^2 daily, 5 weeks; monitored throughout the study
Method: The modified Draize test is an acute erythema test carried out as follows. A C57BL/6J mouse is shaved in an application area, and the application area allowed to rest for approximately 24 hours and then rinsed with non-irritating soap. A test composition is applied evenly, without significant rubbing, to a 12 cm^2 area of the mouse's skin in a volume of 2.5 mg/cm^2. The sample is allowed to sit uncovered for 24 hours. After 24 hours, the application area is washed gently with lx phosphate buffered saline (1×PBS) and non-irritating soap to facilitate observation of the application area. The application area is then scored according to the following scale: 0=no evidence of erythema; 1=minimal erythema, barely perceptible; 2=definite erythema, readily visible, minimal edema or minimal popular response; 3=erythema and papules; 4=definite edema; 5=erythema, edema, and papules; 6=vesicular eruption; 7=strong reaction spreading beyond test site.
The skin surface of the shaved patch was wiped clean with phosphate buffer saline (1×PBS). Mice were left to acclimate overnight. […]
Clinical signs such as behavior were monitored throughout the study. […] The patch area was assessed for signs of erythema using the modified Draize scoring system and dryness every other day throughout the study period.

[5] = tested on: male C57BL/6J mice; details: 2% (w/w) ebastine in ethanol/propylene glycol, topical 2.5 mg/cm^2 daily
Method: Penetration into the skin was assessed in a sample size of three male mice.
The skin surface of the shaved patch was wiped clean with phosphate buffer saline (1×PBS). Mice were left to acclimate overnight.
For five weeks, the test composition was applied daily at a dose of 2.5 mg/cm^2 using a positive displacement pipette and carefully spread in the 12 cm^2 test area using a clean metal spatula.
At the end of the 5-week study period, 10 hairs from each site were plucked from the upper-middle, middle, and lower-middle patch area of each of the mice. In addition, 10 hairs were plucked from outside the patch area for each of the mice in the nontreatment group. The length of each of the plucked hairs was measured with a microcaliper and the resulting values were averaged.
In the study (as described supra), mice were shaved while in the telogen phase. Shaving stimulated hair growth by inducing the transition from rest (telogen phase) to growth (anagen phase). The shaved patch area for each mouse was observed daily for anagen onset, i.e., the first day of the anagen phase of the hair cycle.

Ebastine Solubility in 90:10 Ethanol:Water ([1]; pH 2.3, room temperature): 30.38 (mg/g)
Ebastine Solubility in 90:10 Ethanol:Water ([1]; pH 6.16, room temperature): 33.35 (mg/g)
Ebastine Solubility in 90:10 Ethanol:Water ([1]; pH 7.76, room temperature): 16.58 (mg/g)
Ebastine Solubility in 90:10 Ethanol:Water ([1]; pH 9.90, room temperature): 15.3 (mg/g)
solubility in ethanol and water mixture compared with ethanol alone or water alone ([1]; pH less than about 7, such as 2.3 to 6.2): exceeded
solubility of ebastine in water alone ([1]; water alone, useful pH ranges): less than 2 mg/g
Ebastine Solubility in water ([1]; pH 3.04, room temperature): 1.4 (mg/g)
Ebastine Solubility in water ([1]; pH 5.06, room temperature): 0 (mg/g)
Ebastine Solubility in water ([1]; pH 6.91, room temperature): 0 (mg/g)
stability of ebastine in ethanol [2]: stable
EBASTINE SOLUBILITY AT ROOM TEMP ([3]; Benzyl Benzoate): >45.0 mg/g
EBASTINE SOLUBILITY AT ROOM TEMP ([3]; Diethyl Sebacate): 120.6 mg/g
EBASTINE SOLUBILITY AT ROOM TEMP ([3]; Diethylene Glycol Monoethyl Ether): 33.9 mg/g
EBASTINE SOLUBILITY AT ROOM TEMP ([3]; Dimethyl Succinate): 0.47 mg/g
EBASTINE SOLUBILITY AT ROOM TEMP ([3]; Ethyl Acetate): 245.2 mg/g
EBASTINE SOLUBILITY AT ROOM TEMP ([3]; Methylpyrrolidone): >23.1 mg/g
EBASTINE SOLUBILITY AT ROOM TEMP ([3]; Triacetin): <1.1 mg/g
amount of ebastine soluble in 1 gram of diethyl sebacate ([3]; in 1 gram of diethyl sebacate): approximately 120.6 mg
clinical signs: behavior [4]: No abnormal behavior
Compound: CC(C)(C)c1ccc(C(=O)CCCN2CCC(OC(c3ccccc3)c3ccccc3)CC2)cc1 [Ebastine, 1-[4-(1,1-dimethylethyl)phenyl]-4-[4-(diphenylmethoxy)-1-piperidinyl]-1-butanone]
solubility class in 9:1 ethanol:water ([1]; pH range of from 2 to 6): soluble (solubility of 33.3 mg/g or greater)
solubility class in 9:1 ethanol:water ([1]; pH values above 6, such as 7 to 10): at least sparingly soluble (solubility of 10.0 mg/g or greater)
solubility class in water ([1]; pH below 5.0, such as 3.0 to 5.0): slightly soluble (solubility of 1.0 to 10.0 mg/g)
solubility class in water ([1]; pH in the range of 5 to 7, room temperature): insoluble (solubility of less than 1.0 mg/g)
solubility class in water ([1]; pH values of 5 and above): insoluble (solubility of less than 1.0 mg/g)
time to significant anagen induction (average) ([5]; mice shaved in telogen phase): 10 days
total average patch coverage with hair ([5]; study end, after 5 weeks): 90 % of the total patch area
